Measurements: patent US20020137929A1, “1 - (3-heterocyclylphenyl) isothiourea, -isourea, -guanidine and -amidine herbicidal agents” (Intellectual Property Department, BASF Aktiengesellschaft, priority 1998, published 2002)

Columns and labels:
[1] = system: ABUTH (Velvetleaf); assay: Postemergence herbicidal evaluation; format: in vivo, Abutilon theophrasti; details: for ABUTH herbicidal rating: postemergence
Method in brief: (§1)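 Each compound, dispersed in an acetone/water mix (50/50) carrying 0.5% TWEEN 20, is nozzle-sprayed at 40 psi on approximately two-week-old seedlings at about 0.0156–0.500 kg/ha. Plants are assessed 4–5 weeks afterward on a 0–9 scale relative to control; duplicate tests are averaged.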

[2] = system: CHEAL (Lambsquarters, Common); assay: Preemergence herbicidal evaluation; format: in vivo, Chenopodium album; details: rated 4-5 weeks after treatment
Method in brief: (§2)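 Test compound, dissolved in aqueous acetone, was sprayed over planted soil cups at an equivalent of about 0.0156 to 0.500 kg/ha; seeds had been mixed with potting soil. Greenhouse growth followed, with visual 0-9 scoring of injury at four to five weeks.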

[3] = system: GLXMAW (Soybean, Williams); assay: Postemergence herbicidal evaluation; format: in vivo, Glycine max, (L.) Merr. cv Williams; details: for GLXMAW herbicidal rating: postemergence
Method in brief: as §1

[4] = system: ECHCG (Barnyardgrass); assay: Postemergence herbicidal evaluation; format: in vivo, Echinochloa crus-galli; details: for ECHCG herbicidal rating: postemergence
Method in brief: as §1

[5] = system: AMBEL (Ragweed, Common); assay: Preemergence herbicidal evaluation; format: in vivo, Ambrosia artemisifolia; details: rated 4-5 weeks after treatment
Method in brief: as §2

[6] = system: ORYSAT (Rice, Tebonnet); assay: Postemergence herbicidal evaluation; format: in vivo, Oryza sativa, (L.) Tebonnet; details: for ORYSAT herbicidal rating: postemergence
Method in brief: as §1

[7] = system: CYPSE (Flatsedge); assay: Preemergence weed control under flooded paddy conditions; format: in vivo, Cyperus serotinus; details: rated 3-4 weeks after treatment
Method in brief: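 Silt loam, seeds in top 0.5 cm; flood held 1.5-3 cm; test cpd as acetone/water 50/50 into flood water, ~0.0313-0.500 kg/ha a.i.; greenhouse 3-4 wk; visual 0-9 score vs control.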

[8] = system: GALAP (Galium); assay: Preemergence herbicidal evaluation; format: in vivo, Galium aparine; details: rated 4-5 weeks after treatment
Method in brief: as §2

[9] = system: CASOB (Sicklepod); assay: Preemergence herbicidal evaluation; format: in vivo, Cassia obtusifolia; details: rated 4-5 weeks after treatment
Method in brief: as §2

[10] = system: CHEAL (Lambsquarters, Common); assay: Postemergence herbicidal evaluation; format: in vivo, Chenopodium album; details: for CHEAL herbicidal rating: postemergence
Method in brief: as §1

[11] = system: AMBEL (Ragweed, Common); assay: Postemergence herbicidal evaluation; format: in vivo, Ambrosia artemisifolia; details: for AMBEL herbicidal rating: postemergence
Method in brief: as §1

[12] = system: ZEAMX (Corn, Field); assay: Postemergence herbicidal evaluation; format: in vivo, Zea mays; details: for ZEAMX herbicidal rating: postemergence
Method in brief: as §1

[13] = system: CYPSE (Flatsedge); assay: Postemergence weed control under flooded paddy conditions; format: in vivo, Cyperus serotinus; details: postemergence weeds, 3-4 weeks after treatment
Method in brief: (§3)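 Flood-water application, about 0.0313–0.500 kg/ha a.i. in aqueous/acetone 50/50 v/v; water depth 1.5–3 cm throughout. Weeds 3–5 cm, rice 1.5–2.5 leaf. Greenhouse; 0–9 visual rating vs control at 3–4 wk.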

[14] = system: CYPIR (Rice Flatsedge); assay: as above; format: in vivo, Cyperus iria; details: postemergence weeds, 3-4 weeks after treatment
Method in brief: as §3

CCOC(=O)CN1C(=O)C(F)SC1=Nc1cc(-n2c(=O)cc(C(F)(F)F)n(C)c2=O)c(F)cc1Cl (centres unmarked) [Compound 11, Ethyl 2-{{2-chloro-5-[3,6-dihydro-3-methyl-2,6-dioxo-4-(trifluoromethyl)-1(2H)-pyrimidinyl]-4-fluorophenyl}imino}-5-fluoro-4-oxo-3-thiazolidineacetate]
1.0: AMBEL preemergence herbicidal rating ([5]; rate 0.0313 kg/ha) | AMBEL herbicidal rating ([11]; rate 0.0156 kg/ha)
5.0: GLXMAW herbicidal rating ([3]; rate 0.0156 kg/ha)
2.0: ORYSAT herbicidal rating ([6]; rate 0.0156 kg/ha) | ORYSAT herbicidal rating ([6]; rate 0.0313 kg/ha)
6.0: ECHCG herbicidal rating ([4]; rate 0.0625 kg/ha)
5.5: AMBEL preemergence herbicidal rating ([5]; rate 0.0625 kg/ha) | CASOB preemergence herbicidal rating ([9]; rate 0.2500 kg/ha)
0.0: ECHCG herbicidal rating ([4]; rate 0.0156 kg/ha) | ECHCG herbicidal rating ([4]; rate 0.0313 kg/ha) | AMBEL preemergence herbicidal rating ([5]; rate 0.0156 kg/ha) | Herbicidal rating CYPSE ([7]; 0.0313 kg/ha) | Herbicidal rating CYPSE ([7]; 0.0625 kg/ha) | Herbicidal rating CYPSE ([7]; 0.1250 kg/ha) | Herbicidal rating CYPSE ([7]; 0.2500 kg/ha) | GALAP preemergence herbicidal rating ([8]; rate 0.0156 kg/ha) | GALAP preemergence herbicidal rating ([8]; rate 0.0313 kg/ha) | GALAP preemergence herbicidal rating ([8]; rate 0.0625 kg/ha) | GALAP preemergence herbicidal rating ([8]; rate 0.1250 kg/ha) | CASOB preemergence herbicidal rating ([9]; rate 0.0156 kg/ha) | CASOB preemergence herbicidal rating ([9]; rate 0.0313 kg/ha) | CASOB preemergence herbicidal rating ([9]; rate 0.0625 kg/ha) | CASOB preemergence herbicidal rating ([9]; rate 0.1250 kg/ha) | Herbicidal rating CYPSE ([13]; rate 0.0313 kg/ha) | Herbicidal rating CYPSE ([13]; rate 0.0625 kg/ha) | Herbicidal rating CYPSE ([13]; rate 0.1250 kg/ha) | Herbicidal rating CYPSE ([13]; rate 0.2500 kg/ha) | Herbicidal rating CYPIR ([14]; rate 0.0313 kg/ha) | Herbicidal rating CYPIR ([14]; rate 0.0625 kg/ha) | Herbicidal rating CYPIR ([14]; rate 0.1250 kg/ha) | Herbicidal rating CYPIR ([14]; rate 0.2500 kg/ha)
6.5: AMBEL preemergence herbicidal rating ([5]; rate 0.1250 kg/ha) | ZEAMX herbicidal rating ([12]; rate 0.0156 kg/ha) | ZEAMX herbicidal rating ([12]; rate 0.0313 kg/ha)
9.0: ABUTH herbicidal rating ([1]; rate 0.0156 kg/ha) | ABUTH herbicidal rating ([1]; rate 0.0313 kg/ha) | ABUTH herbicidal rating ([1]; rate 0.0625 kg/ha) | ABUTH herbicidal rating ([1]; rate 0.1250 kg/ha) | CHEAL preemergence herbicidal rating ([2]; rate 0.0313 kg/ha) | CHEAL preemergence herbicidal rating ([2]; rate 0.0625 kg/ha) | CHEAL preemergence herbicidal rating ([2]; rate 0.1250 kg/ha) | CHEAL preemergence herbicidal rating ([2]; rate 0.2500 kg/ha) | GLXMAW herbicidal rating ([3]; rate 0.0625 kg/ha) | GLXMAW herbicidal rating ([3]; rate 0.1250 kg/ha) | AMBEL preemergence herbicidal rating ([5]; rate 0.2500 kg/ha) | GALAP preemergence herbicidal rating ([8]; rate 0.2500 kg/ha) | CHEAL herbicidal rating ([10]; rate 0.0313 kg/ha) | CHEAL herbicidal rating ([10]; rate 0.0625 kg/ha) | CHEAL herbicidal rating ([10]; rate 0.1250 kg/ha) | AMBEL herbicidal rating ([11]; rate 0.0313 kg/ha) | AMBEL herbicidal rating ([11]; rate 0.0625 kg/ha) | AMBEL herbicidal rating ([11]; rate 0.1250 kg/ha)
7.5: CHEAL preemergence herbicidal rating ([2]; rate 0.0156 kg/ha) | GLXMAW herbicidal rating ([3]; rate 0.0313 kg/ha) | ZEAMX herbicidal rating ([12]; rate 0.0625 kg/ha) | ZEAMX herbicidal rating ([12]; rate 0.1250 kg/ha)
7.0: ECHCG herbicidal rating ([4]; rate 0.1250 kg/ha) | CHEAL herbicidal rating ([10]; rate 0.0156 kg/ha)
3.0: ORYSAT herbicidal rating ([6]; rate 0.0625 kg/ha) | ORYSAT herbicidal rating ([6]; rate 0.1250 kg/ha)

CCOC(=O)CN1C(=O)C[S+]([O-])/C1=N/c1cc(-n2c(=O)cc(C(F)(F)F)n(C)c2=O)c(F)cc1Cl (centres unmarked) [Compound 45, 2-{{2-Chloro-5-[3,6-dihydro-3-methyl-2,6-dioxo-4-(trifluoromethyl)-1(2H)-pyrimidinyl]-4-fluoro-phenyl}imino}-4-oxo-3-thiazolidineacetic acid, ethyl ester, 1-oxide]
2.0: Preemergence herbicidal rating AMBEL ([5]; rate 0.2500 kg/ha) | Postemergence herbicidal rating ORYSAT ([6]; Rate 0.0625 kg/ha)
3.0: Herbicidal rating CYPIR ([14]; rate 0.0625 kg/ha)
6.5: Postemergence herbicidal rating GLXMAW ([3]; Rate 0.0313 kg/ha)
7.0: Postemergence herbicidal rating GLXMAW ([3]; Rate 0.0625 kg/ha) | Preemergence herbicidal rating GALAP ([8]; rate 0.2500 kg/ha) | Herbicidal rating CYPIR ([14]; rate 0.1250 kg/ha) | Herbicidal rating CYPIR ([14]; rate 0.2500 kg/ha)
5.0: Postemergence herbicidal rating CHEAL ([10]; Rate 0.0313 kg/ha) | Postemergence herbicidal rating ZEAMX ([12]; Rate 0.0313 kg/ha)
9.0: Postemergence herbicidal rating ABUTH ([1]; Rate 0.0156 kg/ha) | Postemergence herbicidal rating ABUTH ([1]; Rate 0.0313 kg/ha) | Postemergence herbicidal rating ABUTH ([1]; Rate 0.0625 kg/ha) | Preemergence herbicidal rating CHEAL ([2]; rate 0.0156 kg/ha) | Preemergence herbicidal rating CHEAL ([2]; rate 0.0313 kg/ha) | Preemergence herbicidal rating CHEAL ([2]; rate 0.0625 kg/ha) | Preemergence herbicidal rating CHEAL ([2]; rate 0.1250 kg/ha) | Preemergence herbicidal rating CHEAL ([2]; rate 0.2500 kg/ha) | Postemergence herbicidal rating CHEAL ([10]; Rate 0.0625 kg/ha) | Postemergence herbicidal rating AMBEL ([11]; Rate 0.0625 kg/ha)
4.0: Postemergence herbicidal rating AMBEL ([11]; Rate 0.0313 kg/ha)
5.5: Postemergence herbicidal rating GLXMAW ([3]; Rate 0.0156 kg/ha) | Postemergence herbicidal rating ZEAMX ([12]; Rate 0.0625 kg/ha)
0.0: Postemergence herbicidal rating ECHCG ([4]; Rate 0.0156 kg/ha) | Postemergence herbicidal rating ECHCG ([4]; Rate 0.0313 kg/ha) | Postemergence herbicidal rating ECHCG ([4]; Rate 0.0625 kg/ha) | Preemergence herbicidal rating AMBEL ([5]; rate 0.0156 kg/ha) | Preemergence herbicidal rating AMBEL ([5]; rate 0.0313 kg/ha) | Preemergence herbicidal rating AMBEL ([5]; rate 0.0625 kg/ha) | Preemergence herbicidal rating AMBEL ([5]; rate 0.1250 kg/ha) | Herbicidal rating CYPSE ([7]; 0.0313 kg/ha) | Herbicidal rating CYPSE ([7]; 0.0625 kg/ha) | Herbicidal rating CYPSE ([7]; 0.2500 kg/ha) | Preemergence herbicidal rating GALAP ([8]; rate 0.0156 kg/ha) | Preemergence herbicidal rating GALAP ([8]; rate 0.0313 kg/ha) | Preemergence herbicidal rating GALAP ([8]; rate 0.0625 kg/ha) | Preemergence herbicidal rating GALAP ([8]; rate 0.1250 kg/ha) | Preemergence herbicidal rating CASOB ([9]; rate 0.0156 kg/ha) | Preemergence herbicidal rating CASOB ([9]; rate 0.0313 kg/ha) | Preemergence herbicidal rating CASOB ([9]; rate 0.0625 kg/ha) | Preemergence herbicidal rating CASOB ([9]; rate 0.1250 kg/ha) | Preemergence herbicidal rating CASOB ([9]; rate 0.2500 kg/ha) | Postemergence herbicidal rating CHEAL ([10]; Rate 0.0156 kg/ha) | Herbicidal rating CYPSE ([13]; rate 0.0313 kg/ha) | Herbicidal rating CYPSE ([13]; rate 0.0625 kg/ha) | Herbicidal rating CYPSE ([13]; rate 0.2500 kg/ha) | Herbicidal rating CYPIR ([14]; rate 0.0313 kg/ha)
4.5: Postemergence herbicidal rating ZEAMX ([12]; Rate 0.0156 kg/ha)
1.5: Postemergence herbicidal rating ORYSAT ([6]; Rate 0.0156 kg/ha) | Postemergence herbicidal rating ORYSAT ([6]; Rate 0.0313 kg/ha)
